One experiment deals with HBV rcDNA in HepDE19 cells. In words: HepDE19 assay with bDNA quantitation of HBV rcDNA. The class given is cell-based, hepatitis B virus. Conditions: HepDE19 assay, inhibition of rcDNA formation, bDNA quantitation; read-out: DE-19bDNA EC50.
Consider `CNc1nc2c(c3cc(F)c(F)cc13)C(N(C)C(=O)c1cc3cc(F)c(F)cc3[nH]1)COC2` (single isomer, unassigned) [Compound 334, N-(8,9-Difluoro-6-(methylamino)-1,4-dihydro-2H-pyrano[3,4-c]isoquinolin-1-yl)-5,6-difluoro-N-methyl-1H-indole-2-carboxamide], for which the EC50 was determined as 10 nM.
As to `CN(C(=O)c1cc2cc(F)c(F)cc2[nH]1)C1COCc2nc(NCCO)c3cc(F)c(F)cc3c21` (single isomer, unassigned) [Compound 335, N-(8,9-Difluoro-6-((2-hydroxyethyl)amino)-1,4-dihydro-2H-pyrano[3,4-c]isoquinolin-1-yl)-5,6-difluoro-N-methyl-1H-indole-2-carboxamide], the EC50 stood at 440 nM.
With `CN(C(=O)c1cc2cc(F)c(F)cc2[nH]1)C1COCc2nc(NCCO)c3cc(F)c(F)cc3c21` (single isomer, unassigned) [Compound 336, N-(8,9-Difluoro-6-((2-hydroxyethyl)amino)-1,4-dihydro-2H-pyrano[3,4-c]isoquinolin-1-yl)-5,6-difluoro-N-methyl-1H-indole-2-carboxamide], the EC50 came out at 10 nM.
Consider `CN(C(=O)c1cc2cc(F)c(F)cc2[nH]1)C1COCc2nc(NCCN)c3cc(F)c(F)cc3c21` (single isomer, unassigned) [Compound 351, N-(6-((2-Aminoethyl)amino)-8,9-difluoro-1,4-dihydro-2H-pyrano[3,4-c]isoquinolin-1-yl)-5,6-difluoro-N-methyl-1H-indole-2-carboxamide], for which the EC50 was found to be 30 nM.
The same measure, in the same setting: to `CN(C(=O)c1cc2cc(F)c(F)cc2[nH]1)C1COCc2nc(NCCN)c3cc(F)c(F)cc3c21` (single isomer, unassigned) [Compound 352, N-(6-((2-Aminoethyl)amino)-8,9-difluoro-1,4-dihydro-2H-pyrano[3,4-c]isoquinolin-1-yl)-5,6-difluoro-N-methyl-1H-indole-2-carboxamide] belongs 590 nM.
For `CC(O)c1cc(F)cc2[nH]c(C(=O)N(C)[C@@H]3COCc4[nH]c(=O)c5cc(F)c(F)cc5c43)cc12` (single isomer, unassigned) [Compound 353], the EC50 was 60 nM.
Regarding `CC(O)c1cc(F)cc2[nH]c(C(=O)N(C)[C@@H]3COCc4[nH]c(=O)c5cc(F)c(F)cc5c43)cc12` (single isomer, unassigned) [Compound 354], the EC50 was 20 nM.
`CN(C(=O)c1cc2sccc2[nH]1)C1COCc2[nH]c(=O)c3cc(F)ccc3c21` (single isomer, unassigned) [Compound 380, N-(8-Fluoro-6-oxo-1,4,5,6-tetrahydro-2H-pyrano[3,4-c]isoquinolin-1-yl)-N-methyl-4H-thieno[3,2-b]pyrrole-5-carboxamide]: the EC50 amounted to 880 nM.
For the compound `CN(C(=O)c1cc2sccc2[nH]1)C1COCc2[nH]c(=O)c3cc(F)ccc3c21` (single isomer, unassigned) [Compound 381, N-(8-Fluoro-6-oxo-1,4,5,6-tetrahydro-2H-pyrano[3,4-c]isoquinolin-1-yl)-N-methyl-4H-thieno[3,2-b]pyrrole-5-carboxamide], the EC50 turned out to be 40 nM.
Take `CN(C(=O)c1cc2c(C#N)cc(F)cc2[nH]1)C1COCc2[nH]c(=O)c3cc(F)ccc3c21` (single isomer, unassigned) [Compound 382, 4-Cyano-6-fluoro-N-(8-fluoro-6-oxo-1,4,5,6-tetrahydro-2H-pyrano[3,4-c]isoquinolin-1-yl)-N-methyl-1H-indole-2-carboxamide]: the EC50 stood at 980 nM.
As to `CN(C(=O)c1cc2c(C#N)cc(F)cc2[nH]1)C1COCc2[nH]c(=O)c3cc(F)ccc3c21` (single isomer, unassigned) [Compound 383, 4-Cyano-6-fluoro-N-(8-fluoro-6-oxo-1,4,5,6-tetrahydro-2H-pyrano[3,4-c]isoquinolin-1-yl)-N-methyl-1H-indole-2-carboxamide], the EC50 came to 40 nM.
Same read-out and setting: to `CN(C(=O)c1cc2ccc(C(F)F)cn2c1)C1CNCc2[nH]c(=O)c3cc(F)c(F)cc3c21` (single isomer, unassigned) [Compound 387, N-(8,9-Difluoro-6-oxo-1,2,3,4,5,6-hexahydrobenzo[c][1,7]naphthyridin-1-yl)-6-(difluoromethyl)-N-methylindolizine-2-carboxamide] belongs 11000 nM.
For `CN(C(=O)c1cc2ccc(C(F)F)cn2c1)C1CNCc2[nH]c(=O)c3cc(F)c(F)cc3c21` (single isomer, unassigned) [Compound 388, N-(8,9-Difluoro-6-oxo-1,2,3,4,5,6-hexahydrobenzo[c][1,7]naphthyridin-1-yl)-6-(difluoromethyl)-N-methylindolizine-2-carboxamide], the 50% effective concentration (EC50) was 110 nM.
Regarding `CN(C(=O)c1ccc2cccn2c1)C1COCc2[nH]c(=O)c3cc(F)ccc3c21` (single isomer, unassigned) [Compound 389, N-(8-Fluoro-6-oxo-1,4,5,6-tetrahydro-2H-pyrano[3,4-c]isoquinolin-1-yl)-N-methylindolizine-6-carboxamide], the EC50 turned out to be 17000 nM.
Consider `CN(C(=O)c1ccc2cccn2c1)C1COCc2[nH]c(=O)c3cc(F)ccc3c21` (single isomer, unassigned) [Compound 390, N-(8-Fluoro-6-oxo-1,4,5,6-tetrahydro-2H-pyrano[3,4-c]isoquinolin-1-yl)-N-methylindolizine-6-carboxamide], for which the EC50 was found to be 70 nM.
As to `CN(C(=O)c1ccc2cccn2c1)C1CNCc2[nH]c(=O)c3cc(F)c(F)cc3c21` (single isomer, unassigned) [Compound 391, N-(8,9-difluoro-6-oxo-1,2,3,4,5,6-hexahydrobenzo[c][1,7]naphthyridin-1-yl)-N-methylindolizine-6-carboxamide], the EC50 was 22000 nM.
With `CN(C(=O)c1ccc2cccn2c1)C1CNCc2[nH]c(=O)c3cc(F)c(F)cc3c21` (single isomer, unassigned) [Compound 392, N-(8,9-difluoro-6-oxo-1,2,3,4,5,6-hexahydrobenzo[c][1,7]naphthyridin-1-yl)-N-methylindolizine-6-carboxamide], the EC50 stood at 90 nM.
Turning to `CCc1cc(F)cc2[nH]c(C(=O)N(C)C3COCc4[nH]c(=O)c5cc(F)ccc5c43)cc12` (single isomer, unassigned) [Compound 393, 4-Ethyl-6-fluoro-N-(8-fluoro-6-oxo-1,4,5,6-tetrahydro-2H-pyrano[3,4-c]isoquinolin-1-yl)-N-methyl-1H-indole-2-carboxamide], the EC50 came to 1200 nM.
Consider `CCc1cc(F)cc2[nH]c(C(=O)N(C)C3COCc4[nH]c(=O)c5cc(F)ccc5c43)cc12` (single isomer, unassigned) [Compound 394, 4-Ethyl-6-fluoro-N-(8-fluoro-6-oxo-1,4,5,6-tetrahydro-2H-pyrano[3,4-c]isoquinolin-1-yl)-N-methyl-1H-indole-2-carboxamide], for which the EC50 amounted to 460 nM.
Turning to `CN(C(=O)c1cc2cc(C#N)ccc2[nH]1)C1COCc2[nH]c(=O)c3cc(F)ccc3c21` (single isomer, unassigned) [Compound 397, 5-Cyano-N-(8-fluoro-6-oxo-1,4,5,6-tetrahydro-2H-pyrano[3,4-c]isoquinolin-1-yl)-N-methyl-1H-indole-2-carboxamide], the EC50 stood at 17000 nM.
Still for that read-out and setting: the same measure for `CN(C(=O)c1cc2cc(C#N)ccc2[nH]1)C1COCc2[nH]c(=O)c3cc(F)ccc3c21` (single isomer, unassigned) [Compound 398, 5-Cyano-N-(8-fluoro-6-oxo-1,4,5,6-tetrahydro-2H-pyrano[3,4-c]isoquinolin-1-yl)-N-methyl-1H-indole-2-carboxamide]: 270 nM; for `CN(C(=O)c1cc2c(C#N)cc(F)cc2[nH]1)C1CNCc2[nH]c(=O)c3cc(F)c(F)cc3c21` (single isomer, unassigned) [Compound 399, 4-Cyano-N-(8,9-difluoro-6-oxo-1,2,3,4,5,6-hexahydrobenzo[c][1,7]naphthyridin-1-yl)-6-fluoro-N-methyl-1H-indole-2-carboxamide]: 3800 nM; for `CN(C(=O)c1cc2c(C#N)cc(F)cc2[nH]1)C1CNCc2[nH]c(=O)c3cc(F)c(F)cc3c21` (single isomer, unassigned) [Compound 400, 4-Cyano-N-(8,9-difluoro-6-oxo-1,2,3,4,5,6-hexahydrobenzo[c][1,7]naphthyridin-1-yl)-6-fluoro-N-methyl-1H-indole-2-carboxamide]: 90 nM.

The experiment is the same for the next values; noted with them: Hepatitis B virus, HepDE19, HepDE19 assay, inhibition of rcDNA formation, bDNA quantitation; read-out: DE-19bDNA EC50.
Regarding `CN(C(=O)c1cccc(Oc2cccc(F)c2)c1)C1CNCc2[nH]c(=O)c3cc(F)c(F)cc3c21` (single isomer, unassigned) [Compound 339, N-(8,9-Difluoro-6-oxo-1,2,3,4,5,6-hexahydrobenzo[c][1,7]naphthyridin-1-yl)-3-(3-fluorophenoxy)-N-methylbenzamide], the EC50 came out at 25000 nM.
On to `CN(C(=O)c1cnc(C(F)(F)F)c(Cl)c1)C1COCc2[nH]c(=O)c3cc(F)ccc3c21` (single isomer, unassigned) [Compound 378, 5-Chloro-N-(8-fluoro-6-oxo-1,4,5,6-tetrahydro-2H-pyrano[3,4-c]isoquinolin-1-yl)-N-methyl-6-(trifluoromethyl)nicotinamide], for which the EC50 was found to be 18300 nM.
As to `CN(C(=O)c1cnc(C(F)(F)F)c(Cl)c1)[C@@H]1COCc2[nH]c(=O)c3cc(F)ccc3c21` (single isomer, unassigned) [Compound 379, 5-Chloro-N-(8-fluoro-6-oxo-1,4,5,6-tetrahydro-2H-pyrano[3,4-c]isoquinolin-1-yl)-N-methyl-6-(trifluoromethyl)nicotinamide], the EC50 worked out at 170 nM.
As for `CN(C(=O)c1cc2cc(C(F)F)ccn2c1)C1CNCc2[nH]c(=O)c3cc(F)c(F)cc3c21` (single isomer, unassigned) [Compound 386, N-(8,9-Difluoro-6-oxo-1,2,3,4,5,6-hexahydrobenzo[c][1,7]naphthyridin-1-yl)-7-(difluoromethyl)-N-methylindolizine-2-carboxamide], the EC50 came out at 1900 nM.

For orientation: EC50 means the concentration needed to bring the measured effect to its halfway point.

The record behind these values is US20240228504A1, “SUBSTITUTED TRICYCLIC AMIDES, ANALOGUES THEREOF, AND METHODS USING SAME” (Arbutus Biopharma Corporation, priority 2020, published 2024).
